Measured values: patent publication US4738968A, “1,8-naphthyridine derivatives useful as anti-bacterial agents” (Dainippon Pharmaceutical Co., Ltd., priority 1985, dated 1988)
In brackets after ≈: the same amount, converted by molar mass.

Experiments:
Solubility in water = format: physicochemical; settings: distilled water, 25° C overnight
Experimental: The sample was added to distilled water (10 ml) and the solution was shaken in the supersaturated state for 30 minutes. After incubation at 25° C. overnight, the solution was filtered with a microfilter. The filtrate was diluted with 0.1 N hydrochloric acid. The absorbance at 270 nm of the solution was measured and the concentration (μg/ml) of the sample was calculated from a calibration curve separately prepared.

[1] = test system: Staphylococcus aureus 50774; assay: In vivo efficacy against systemic infection in mice, S. aureus 50774; design: species or system mice (ddY-S); settings: Staphylococcus aureus, 50774, 336 h, iv infection 5×10^8 cells, drug iv twice, immediately and 6 hours after infection, 14 days observation, calculated for free base, read-out: median effective dose (ED50)
Experimental: (§1) Compounds were each dissolved in deionized water. Each of the solutions was intravenously (iv) administered to mice infected by each of the test organisms under the conditions shown hereinbelow, and the median effective dose (ED50) was calculated by probit analysis. The numerals in the table show ED50 (mg/kg) value, caluclated for free base. Experimental conditions: Mice: Male mice (ddY-S) weighing about 20 g Infection: Staphylococcus aureus 50774 Intravenous infection with 5×10^8 cells per mouse suspended in saline. Medication: Twice, immediately and 6 hours after infection. Observation: For 14 days in the case of Staphylococcus aureus 50774. For 7 days in the case of Streptococcus pyogenes […].

[2] = test system: Streptococcus pyogenes A65; assay: In vivo efficacy against systemic infection in mice, S. pyogenes A65; design: species or system mice (ddY-S); settings: A65, 168 h, intraperitoneal infection 3×10^7 cells, drug iv twice, immediately and 6 hours after infection, 7 days observation, calculated for free base, read-out: median effective dose (ED50)
Experimental: as §1, with “Streptococcus pyogenes […] Intraperitoneal” for “Staphylococcus aureus 50774 Intravenous”, “3×10^7” for “5×10^8”, “brain heart infusion broth.” for “saline.”

S. epidermidis 8 = assay: In vitro antibacterial activity, twofold agar-dilution MIC; format: cell-based; settings: Staphylococcus epidermidis; S. epidermidis 8, Gram +; calculated for free base; 20-hour incubation at 37° C; read-out: minimum inhibitory concentration (MIC)
Experimental: (§2) The antibacterial activity in vitro is show in Table 1. The numbers in the table show minimum inhibitory concentrations (MIC) (μg/ml), calculated for free base. The minimum inhibitory concentration was determined by the twofold agar-dilution method, which was recommended by Japan Society of Chemotherapy (Chemotherapy, 29(1), 76(1981)), using Muller-Hinton agar. One loopful of an overnight culture of test organisms in Mueller-Hinton broth was inoculated onto 10-ml drug-containing agar layers in petri dishes. Bacterial inocula contained approximately 10^6 colonyl-formingunits. Bacterial growth was observed after 20-hour incubation at 37° C. The MIC was defined as the lowest drug concentration which prevented visible bacterial growth.

K. pneumoniae 13 = assay: as above; format: cell-based; settings: Klebsiella pneumoniae; K. pneumoniae 13, Gram -; calculated for free base; 20-hour incubation at 37° C; read-out: minimum inhibitory concentration (MIC)
Experimental: as §2

E. coli P-51209 = assay: as above; format: cell-based; settings: Escherichia coli, P51209; E. coli P-51209, Gram -; calculated for free base; 20-hour incubation at 37° C; read-out: minimum inhibitory concentration (MIC)
Experimental: as §2

E. coli P-51208 = assay: as above; format: cell-based; settings: Escherichia coli, P51208; E. coli P-51208, Gram -; calculated for free base; 20-hour incubation at 37° C; read-out: minimum inhibitory concentration (MIC)
Experimental: as §2

S. pyogenes A65 = assay: as above; format: cell-based; settings: Streptococcus pyogenes; S. pyogenes A65, Gram +; calculated for free base; 20-hour incubation at 37° C; read-out: minimum inhibitory concentration (MIC)
Experimental: as §2

P. rettgeri IFO 3850 = assay: as above; format: cell-based; settings: Providencia rettgeri, IFO3850; P. rettgeri IFO 3850, Gram -; calculated for free base; 20-hour incubation at 37° C; read-out: minimum inhibitory concentration (MIC)
Experimental: as §2

M. lacunata P-7102 = assay: as above; format: cell-based; settings: M. lacunata P-7102, Gram -; calculated for free base; 20-hour incubation at 37° C; read-out: minimum inhibitory concentration (MIC)
Experimental: as §2

S. aureus 80 = assay: as above; format: cell-based; settings: Staphylococcus aureus; S. aureus 80, Gram +; calculated for free base; 20-hour incubation at 37° C; read-out: minimum inhibitory concentration (MIC)
Experimental: as §2

E. coli P-5101 = assay: as above; format: cell-based; settings: Escherichia coli, P5101; E. coli P-5101, Gram -; calculated for free base; 20-hour incubation at 37° C; read-out: minimum inhibitory concentration (MIC)
Experimental: as §2

S. aureus Smith = assay: as above; format: cell-based; settings: Staphylococcus aureus, Gram +, calculated for free base, 20-hour incubation at 37° C, read-out: minimum inhibitory concentration (MIC)
Experimental: as §2

S. aureus 50774 = assay: as above; format: cell-based; settings: Staphylococcus aureus; S. aureus 50774, Gram +; calculated for free base; 20-hour incubation at 37° C; read-out: minimum inhibitory concentration (MIC)
Experimental: as §2

SMILES	solubility (Solubility in water) [µg/mL]	MIC (S. epidermidis 8) [µg/mL]	MIC (K. pneumoniae 13) [µg/mL]	MIC (E. coli P-51209) [µg/mL]	MIC (E. coli P-51208) [µg/mL]	MIC (S. pyogenes A65) [µg/mL]	MIC (P. rettgeri IFO 3850) [µg/mL]	MIC (M. lacunata P-7102) [µg/mL]	MIC (S. aureus 80) [µg/mL]	MIC (E. coli P-5101) [µg/mL]	MIC (S. aureus Smith) [µg/mL]	MIC (S. aureus 50774) [µg/mL]	ED50 [1] [mg/kg]	ED50 [2] [mg/kg]
NC[C@@H]1CN(c2nc3c(cc2F)c(=O)c(C(=O)O)cn3C2CC2)C[C@@H]1F (relative stereo) [Compound No. 1-cis, 7-(cis-3-aminomethyl-4-fluoro-1-pyrrolidinyl)-1-cyclopropyl-6-fluoro-1,4-dihydro-4-oxo-1,8-naphthyridine-3-carboxylic acid]	927 (≈ 2540 µM)	–	–	–	–	–	–	–	–	–	–	–	–	–
CCn1cc(C(=O)O)c(=O)c2cc(F)c(N3CCC(CN)C3)nc21.Cl (stereo not drawn) [Compound A, 7-(3-aminomethyl-1-pyrrolidinyl)-1-ethyl-6-fluoro-1,4-dihydro-4-oxo-1,8-naphthyridine-3-carboxylic acid hydrochloride, reference compound]	–	0.1	0.39	12.5	6.25	0.39	0.78	50	0.39	0.39	0.1	0.2	2.79	3.75
Cl.NCC1CCN(c2nc3c(cc2F)c(=O)c(C(=O)O)cn3C2CC2)C1 (stereo not drawn) [Compound B, 7-(3-aminomethyl-1-pyrrolidinyl)-1-cyclopropyl-6-fluoro-1,4-dihydro-4-oxo-1,8-naphthyridine-3-carboxylic acid hydrochloride, reference compound]	–	0.025	0.1	3.13	3.13	0.05	0.1	12.5	0.05	0.025	0.05	0.025	0.701	0.601
Cl.NC[C@@H]1CN(c2nc3c(cc2F)c(=O)c(C(=O)O)cn3C2CC2)C[C@@H]1Cl (relative stereo) [2-cis.HCl, 7-(cis-3-aminomethyl-4-chloro-1-pyrrolidinyl)-1-cyclopropyl6-fluoro-1,4-dihydro-4-oxo-1,8-naphthyridine-3-carboxylic acid hydrochloride]	–	0.0125	0.05	0.78	0.78	0.025	0.05	3.13	0.0125	0.0125	0.025	0.025	0.355	0.235
NC[C@@H]1CN(c2nc3c(cc2F)c(=O)c(C(=O)O)cn3C2CC2)C[C@@H]1Cl (relative stereo) [Compound No. 2-cis, 7-(cis-3-aminomethyl-4-chloro-1-pyrrolidinyl)-1-cyclopropyl-6-fluoro-1,4-dihydro-4-oxo-1,8-naphthyridine-3-carboxylic acid]	713 (≈ 1870 µM)	–	–	–	–	–	–	–	–	–	–	–	–	–

The next lines start with results.

solubility (Solubility in water) [µg/mL]	MIC (S. epidermidis 8) [µg/mL]	MIC (K. pneumoniae 13) [µg/mL]	MIC (E. coli P-51209) [µg/mL]	MIC (E. coli P-51208) [µg/mL]	MIC (S. pyogenes A65) [µg/mL]	MIC (P. rettgeri IFO 3850) [µg/mL]	MIC (M. lacunata P-7102) [µg/mL]	MIC (S. aureus 80) [µg/mL]	MIC (E. coli P-5101) [µg/mL]	MIC (S. aureus Smith) [µg/mL]	MIC (S. aureus 50774) [µg/mL]	SMILES	ED50 [1] [mg/kg]	ED50 [2] [mg/kg]
–	0.0125	0.05	0.78	0.78	0.025	0.05	3.13	0.025	0.0063	0.025	0.025	Cl.NC[C@@H]1CN(c2nc3c(cc2F)c(=O)c(C(=O)O)cn3C2CC2)C[C@H]1F (relative stereo) [Compound No. 1-trans.HCl, 7-(trans-3-aminomethyl-4-fluoro-1-pyrrolidinyl)-1-cyclopropyl-6-fluoro-1,4-dihydro-4-oxo-1,8-naphthyridine-3carboxylic acid hydrochloride]	–	–
–	0.0125	0.05	0.78	0.78	0.05	0.05	3.13	0.0125	0.0125	0.025	0.025	CCNC[C@@H]1CN(c2nc3c(cc2F)c(=O)c(C(=O)O)cn3C2CC2)C[C@H]1F.Cl (relative stereo) [4-trans.HCl, 1-cyclopropyl-7-(trans-3-ethylaminomethyl-4-fluoro-1-pyrrolidinyl)-6-fluoro-1,4-dihydro-4-oxo-1,8-naphthyridine-3-carboxylic acid hydrochloride]	–	0.267
–	0.0125	0.05	0.78	0.78	0.0125	0.05	6.25	0.025	0.0125	0.025	0.025	Cl.NC[C@@H]1CN(c2nc3c(cc2F)c(=O)c(C(=O)O)cn3C2CC2)C[C@@H]1F (relative stereo) [Compound No. 1-cis.HCl, 7-(cis-3-aminomethyl-4-fluoro-1-pyrrolidinyl)-1-cyclopropyl-6-fluoro-1,4-dihydro-4-oxo-1,8-naphthyridine-3-carboxylic acid hydrochloride]	0.274	0.365
789 (≈ 2090 µM)	–	–	–	–	–	–	–	–	–	–	–	CNC[C@@H]1CN(c2nc3c(cc2F)c(=O)c(C(=O)O)cn3C2CC2)C[C@@H]1F (relative stereo) [3-cis, 1-cyclopropyl-6-fluoro-7-(cis-4-fluoro-3-methylaminomethyl-1-pyrrolidinyl)-1,4-dihydro-4-oxo-1,8-naphthyridine-3-carboxylic acid]	–	–
